Values joined by “and” are separate entries in the source; they are usually repeats but may differ in a detail not shown here. Equal values may be shown once. Toxic doses and inconclusive results are not listed. No stated cut-off is given here; in the data, active means T/C of 150% or more; inactive means T/C below 125%.
Test system: L1210 leukemia ip in BDF1 mice, survival T/C
Assay: NCI In Vivo Anticancer Drug Screen. Data for tumor model L1210 Leukemia (intraperitoneal) in B6D2F1 (BDF1) mice
Conditions: endpoint: mean survival time, higher = longer survival
Outline: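 Value reflects the ratio of survival in compound-treated mice to survival in vehicle-treated controls, with both groups carrying the same transplanted tumor.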

[1] = dose: 100.0 mg/kg/injection, schedule: Q01DX001 (ip), vehicle: carboxymethylcellulose (CMC)
[2] = dose: 200.0 mg/kg/injection, schedule: Q01DX001 (ip), vehicle: carboxymethylcellulose (CMC)
[3] = dose: 400.0 mg/kg/injection, schedule: Q01DX001 (ip), vehicle: carboxymethylcellulose (CMC)
[4] = dose: 100.0 mg/kg/injection, schedule: Q01DX001 (ip), vehicle: saline
[5] = dose: 400.0 mg/kg/injection, schedule: Q01DX001 (ip), vehicle: saline
[6] = dose: 50.0 mg/kg/injection, schedule: Q01DX001 (ip), vehicle: saline
[7] = dose: 200.0 mg/kg/injection, schedule: Q01DX001 (ip), vehicle: saline
[8] = dose: 100.0 mg/kg/injection, schedule: Q01DX001 (ip), vehicle: Klucel (hydroxypropylcellulose) (HPC)
[9] = dose: 100.0 mg/kg/injection, schedule: Q01DX009 (ip), vehicle: Klucel (hydroxypropylcellulose) (HPC)
[10] = dose: 200.0 mg/kg/injection, schedule: Q01DX001 (ip), vehicle: Klucel (hydroxypropylcellulose) (HPC)
[11] = dose: 200.0 mg/kg/injection, schedule: Q01DX009 (ip), vehicle: Klucel (hydroxypropylcellulose) (HPC)
[12] = dose: 400.0 mg/kg/injection, schedule: Q01DX001 (ip), vehicle: Klucel (hydroxypropylcellulose) (HPC)
[13] = dose: 400.0 mg/kg/injection, schedule: Q01DX009 (ip), vehicle: Klucel (hydroxypropylcellulose) (HPC)
[14] = dose: 100.0 mg/kg/injection, schedule: Q04DX003 (ip), vehicle: saline with Tween-80
[15] = dose: 200.0 mg/kg/injection, schedule: Q04DX003 (ip), vehicle: saline with Tween-80
[16] = dose: 100.0 mg/kg/injection, schedule: Q04DX002 (ip), vehicle: Klucel (hydroxypropylcellulose) (HPC)
[17] = dose: 200.0 mg/kg/injection, schedule: Q04DX002 (ip), vehicle: Klucel (hydroxypropylcellulose) (HPC)
[18] = dose: 400.0 mg/kg/injection, schedule: Q04DX002 (ip), vehicle: Klucel (hydroxypropylcellulose) (HPC)
[19] = dose: 100.0 mg/kg/injection, schedule: Q04DX003 (ip), vehicle: Klucel (hydroxypropylcellulose) (HPC)
[20] = dose: 200.0 mg/kg/injection, schedule: Q04DX003 (ip), vehicle: Klucel (hydroxypropylcellulose) (HPC)
[21] = dose: 400.0 mg/kg/injection, schedule: Q04DX003 (ip), vehicle: Klucel (hydroxypropylcellulose) (HPC)

Measured: T/C

Cc1ccc(S(=O)(=O)OC/C(=C(/c2ccccc2)c2ccc(Cl)cc2)c2ccccc2)cc1
inactive: dose: 6.25 mg/kg/injection, schedule: Q04DX003 (ip), vehicle: saline with Tween-80 96 % of control | dose: 12.5 mg/kg/injection, schedule: Q04DX003 (ip), vehicle: saline with Tween-80 98 % of control | dose: 25.0 mg/kg/injection, schedule: Q04DX003 (ip), vehicle: saline with Tween-80 95 % of control

CCCCCCCCN(c1ccc(C(=O)NC(CCC(=O)OCC)C(=O)OCC)cc1)S(=O)(=O)c1ccc(C)cc1 (stereo unspecified)
inactive: dose: 12.5 mg/kg/injection, schedule: Q01DX009 (ip), vehicle: saline with Tween-80 95 % of control | dose: 25.0 mg/kg/injection, schedule: Q01DX009 (ip), vehicle: saline with Tween-80 95 % of control | dose: 50.0 mg/kg/injection, schedule: Q01DX009 (ip), vehicle: saline with Tween-80 95 % of control

COc1cc(/C=N/NC(=O)c2cccc([N+](=O)[O-])c2)ccc1O
inactive: [1] 98 % of control | dose: 100.0 mg/kg/injection, schedule: Q01DX009 (ip), vehicle: carboxymethylcellulose (CMC) 97 % of control and 107 % of control | dose: 100.0 mg/kg/injection, schedule: Q04DX002 (ip), vehicle: carboxymethylcellulose (CMC) 101 % of control and 108 % of control | [2] 96 % of control | dose: 200.0 mg/kg/injection, schedule: Q01DX009 (ip), vehicle: carboxymethylcellulose (CMC) 93 % of control and 103 % of control | dose: 200.0 mg/kg/injection, schedule: Q04DX002 (ip), vehicle: carboxymethylcellulose (CMC) 101 % of control and 104 % of control | [3] 91 % of control | dose: 400.0 mg/kg/injection, schedule: Q01DX009 (ip), vehicle: carboxymethylcellulose (CMC) 97 % of control and 100 % of control | dose: 400.0 mg/kg/injection, schedule: Q04DX002 (ip), vehicle: carboxymethylcellulose (CMC) 104 % of control and 105 % of control

O=C(Cc1ccccc1)c1ccc(N2CCOCC2)cc1
inactive: [4] 89 % of control | [5] 86 % of control

Cn1ncc2[nH]c(=O)n(O)c(=O)c21
inactive: [6] 93 % of control | [4] 96 % of control | [7] 100 % of control | [5] 100 % of control

O=C(c1ccccc1)C1OC1(CBr)c1ccccc1 (stereo unspecified)
inactive: dose: 6.25 mg/kg/injection, schedule: Q01DX009 (ip), vehicle: alcohol 96 % of control | dose: 12.5 mg/kg/injection, schedule: Q01DX009 (ip), vehicle: alcohol 95 % of control | dose: 25.0 mg/kg/injection, schedule: Q01DX009 (ip), vehicle: alcohol 98 % of control | [8] 100 % of control | [9] 106 % of control | [10] 105 % of control | [11] 98 % of control | [12] 106 % of control | [13] 96 % of control

CN(C)CC(OCCCc1ccccc1)C(Cl)(Cl)Cl (stereo unspecified)
inactive: [14] 109 % of control | [15] 101 % of control

CC(=O)c1ccc(CCCC2CCCC2)cc1
inactive: [16] 88 % of control | [17] 91 % of control | [18] 91 % of control

NC(=O)Nc1ccc(C(=O)O)cc1
inactive: [8] 95 % of control | [19] 100 % of control | [10] 91 % of control | [20] 97 % of control | [12] 98 % of control | [21] 98 % of control

CCCCCCCCN
inactive: dose: 25.0 mg/kg/injection, schedule: Q01DX001 (ip), vehicle: saline 103 % of control | dose: 25.0 mg/kg/injection, schedule: Q01DX009 (ip), vehicle: saline 108 % of control and 111 % of control | dose: 25.0 mg/kg/injection, schedule: Q04DX002 (ip), vehicle: saline 101 % of control and 105 % of control | dose: 25.0 mg/kg/injection, schedule: Q04DX003 (ip), vehicle: saline 101 % of control | [6] 101 % of control | dose: 50.0 mg/kg/injection, schedule: Q01DX009 (ip), vehicle: saline 104 % of control | dose: 50.0 mg/kg/injection, schedule: Q04DX002 (ip), vehicle: saline 100 % of control and 105 % of control | dose: 50.0 mg/kg/injection, schedule: Q04DX003 (ip), vehicle: saline 98 % of control | [4] 94 % of control | dose: 100.0 mg/kg/injection, schedule: Q01DX009 (ip), vehicle: saline 111 % of control

O=c1oc2ccccc2cc1-c1ccc([N+](=O)[O-])cc1
inactive: [16] 100 % of control | [17] 89 % of control | [18] 89 % of control

CC(=O)NCC1OC(COCc2ccccc2)C(OCc2ccccc2)C1OCc1ccccc1 (stereo unspecified)
inactive: [19] 107 % of control | [20] 96 % of control | [21] 107 % of control

CNc1nc(N)c(N=O)c(Nc2ccc(Br)cc2)n1
inactive: [1] 102 % of control | [2] 104 % of control | [3] 102 % of control

Cc1ccc(NC(=O)/C=N/O)cc1C
inactive: [4] 104 % of control | [7] 102 % of control | [5] 90 % of control

Cc1c2ccncc2cc2c3ccccc3n(CC3CO3)c12 (stereo unspecified)
inactive: dose: 37.5 mg/kg/injection, schedule: Q01DX009 (ip), vehicle: Klucel (hydroxypropylcellulose) (HPC) 96 % of control | dose: 37.5 mg/kg/injection, schedule: Q04DX003 (ip), vehicle: Klucel (hydroxypropylcellulose) (HPC) 104 % of control | dose: 75.0 mg/kg/injection, schedule: Q01DX009 (ip), vehicle: Klucel (hydroxypropylcellulose) (HPC) 96 % of control | dose: 75.0 mg/kg/injection, schedule: Q04DX003 (ip), vehicle: Klucel (hydroxypropylcellulose) (HPC) 106 % of control and 119 % of control | dose: 150.0 mg/kg/injection, schedule: Q01DX009 (ip), vehicle: Klucel (hydroxypropylcellulose) (HPC) 100 % of control | dose: 150.0 mg/kg/injection, schedule: Q04DX003 (ip), vehicle: Klucel (hydroxypropylcellulose) (HPC) 113 % of control | dose: 300.0 mg/kg/injection, schedule: Q01DX009 (ip), vehicle: Klucel (hydroxypropylcellulose) (HPC) 102 % of control

Cc1ccc(S(=O)(=O)NNC(=O)c2cc(C)c(C)cc2NCC(O)C(O)C(O)CO)cc1 (stereo unspecified)
inactive: [1] 93 % of control | [2] 98 % of control | [3] 89 % of control

COc1ccc(NC(=O)CCc2ccc(N3C(N)=NC(N)=NC3(C)C)cc2)cc1S(=O)(=O)F
inactive: dose: 50.0 mg/kg/injection, schedule: Q01DX001 (ip), vehicle: Klucel (hydroxypropylcellulose) (HPC) 95 % of control | [8] 106 % of control | [10] 98 % of control

[Cl][Pt][Cl].[NH-]CCN1CC1
inactive: dose: 5.0 mg/kg/injection, schedule: Q01DX009 (ip), vehicle: Klucel (hydroxypropylcellulose) (HPC) 114 % of control | dose: 10.0 mg/kg/injection, schedule: Q01DX009 (ip), vehicle: Klucel (hydroxypropylcellulose) (HPC) 110 % of control | dose: 20.0 mg/kg/injection, schedule: Q01DX009 (ip), vehicle: Klucel (hydroxypropylcellulose) (HPC) 98 % of control

O=S1(=O)c2ccccc2-c2ncccc21
inactive: dose: 25.0 mg/kg/injection, schedule: Q01DX001 (ip), vehicle: saline with Tween-80 105 % of control | dose: 50.0 mg/kg/injection, schedule: Q01DX001 (ip), vehicle: saline with Tween-80 109 % of control | dose: 100.0 mg/kg/injection, schedule: Q01DX001 (ip), vehicle: saline with Tween-80 109 % of control

ClCCOCCOc1ccc(Cl)cc1
inactive: dose: 100.0 mg/kg/injection, schedule: Q04DX003 (ip), vehicle: acetone 98 % of control | dose: 200.0 mg/kg/injection, schedule: Q04DX003 (ip), vehicle: acetone 98 % of control | dose: 400.0 mg/kg/injection, schedule: Q04DX003 (ip), vehicle: acetone 91 % of control

Cc1ccc(C(=O)CCCCl)c(C)c1
inactive: [14] 99 % of control | [15] 94 % of control | dose: 400.0 mg/kg/injection, schedule: Q04DX003 (ip), vehicle: saline with Tween-80 96 % of control

CC(=O)n1cc(/C=C2\N=C(c3cccc(Cl)c3)OC2=O)c2ccccc21
inactive: [9] 112 % of control | [11] 104 % of control | [13] 101 % of control
